Holding throughout (experiment): Bacterial growth minimal inhibitory concentration (microdilution, cation-adjusted Mueller-Hinton Broth)
(In broth dilution the organism is exposed to a series of concentrations in liquid medium.)

In experiment [1] the test system is P. aeruginosa ATCC 27853. Format: cell-based, Pseudomonas aeruginosa. The settings on record: Pseudomonas aeruginosa, ATCC27853; quinolone-sensitive strain. In short, it runs like this:
(§1)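 Broth microdilution in cation-adjusted Mueller-Hinton Broth per CLSI M7-A7; MICs in mg/L. S. aureus A798 is methicillin- and quinolone-resistant, K. pneumoniae T6474 penicillin-, cephalosporin- and quinolone-resistant; E. coli ATCC25922 and P. aeruginosa ATCC 27853 are quinolone-sensitive.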

Experiment [2] has as its system S. aureus A798. The format is cell-based, Staphylococcus aureus. Conditions: Staphylococcus aureus, A798; multiply-resistant strain (methicillin- and quinolone-resistant). A digest of the protocol: as §1
For experiment [3], the system named is K. pneumoniae T6474. Format: cell-based, Klebsiella pneumoniae. Conditions: Klebsiella pneumoniae, T6474; multiply-resistant strain (penicillin-, cephalosporin- and quinolone-resistant). A digest of the protocol: as §1
Experiment [4] deals with E. coli ATCC25922. The format is cell-based. Conditions: Escherichia coli, ATCC25922; quinolone-sensitive strain. In short, it runs like this: as §1

Molecules are shown by their SMILES. Values after ≈ are worked out from the molar mass of the structure shown.

Turning to `CN1CC[C@H](COc2cccc(-c3cccc(CNCC[C@H]4CN(c5ccc6c(n5)NC(=O)CO6)C(=O)O4)c3)n2)C1` [Example $141, 6-[(S)-5-(2-{3-[6-((S)-1-methyl-pyrrolidin-3-ylmethoxy)-pyridin-2-yl]-benzylamino}-ethyl)-2-oxo-oxazolidin-3-yl]-4H-pyrido[3,2-b][1,4]oxazin-3-one], the MIC in experiment [1] was 2 µg/mL (≈ 3.58 µM); in experiment [2], 0.5 µg/mL (≈ 0.895 µM); in experiment [3], 2 µg/mL (≈ 3.58 µM); in experiment [4] it was 2 µg/mL (≈ 3.58 µM).
`O=C1COc2ccc(N3C[C@H](CCNCc4cccc(-c5cccc(OC[C@@H]6CCNC6)n5)c4)OC3=O)nc2N1` [Example $143, 6-[(S)-2-oxo-5-(2-{3-[6-((R)-1-pyrrolidin-3-ylmethoxy)-pyridin-2-yl]-benzylamino}-ethyl)-oxazolidin-3-yl]-4H-pyrido[3,2-b][1,4]oxazin-3-one]: the minimal inhibitory concentration (MIC) in experiment [1] was determined as 1 µg/mL (≈ 1.84 µM); in experiment [2] it was 2 µg/mL (≈ 3.67 µM); in experiment [3], 4 µg/mL (≈ 7.34 µM); in experiment [4], 2 µg/mL (≈ 3.67 µM).
As for `O=C1COc2ccc(N3C[C@H](CCNCc4cccc(-c5cccc(OC[C@H]6CCNC6)n5)c4)OC3=O)nc2N1` [Example $144, 6-[(S)-2-oxo-5-(2-{3-[6-((S)-1-pyrrolidin-3-ylmethoxy)-pyridin-2-yl]-benzylamino}-ethyl)-oxazolidin-3-yl]-4H-pyrido[3,2-b][1,4]oxazin-3-one], the minimum inhibitory concentration (MIC) in experiment [1] was 1 µg/mL (≈ 1.84 µM); in experiment [2], 2 µg/mL (≈ 3.67 µM); in experiment [3] it was 4 µg/mL (≈ 7.34 µM); in experiment [4], 4 µg/mL (≈ 7.34 µM).
For the molecule `CN1CC[C@H](Oc2cncc(-c3cccc(CNCC[C@H]4CN(c5ccc6c(n5)NC(=O)CO6)C(=O)O4)n3)n2)C1` [Example $145, 6-{(S)-5-[2-({6-[6-((S)-1-methyl-pyrrolidin-3-yloxy)-pyrazin-2-yl]-pyridin-2-ylmethyl}-amino)-ethyl]-2-oxo-oxazolidin-3-yl}-4H-pyrido[3,2-b][1,4]oxazin-3-one], the minimum inhibitory concentration (MIC) in experiment [1] was found to be 8 µg/mL (≈ 14.6 µM); in experiment [2] it was 2 µg/mL (≈ 3.66 µM); in experiment [3] it was 2 µg/mL (≈ 3.66 µM); in experiment [4], 4 µg/mL (≈ 7.32 µM).
Take `CN1CC[C@H](Oc2cncc(-c3cncc(CNCC[C@H]4CN(c5ccc6c(n5)NC(=O)CO6)C(=O)O4)c3)n2)C1` [Example $146, 6-{(S)-5-[2-({5-[6-((S)-1-methyl-pyrrolidin-3-yloxy)-pyrazin-2-yl]-pyridin-3-ylmethyl}-amino)-ethyl]-2-oxo-oxazolidin-3-yl}-4H-pyrido[3,2-b][1,4]oxazin-3-one]: the MIC in experiment [1] is 4 µg/mL (≈ 7.32 µM); in experiment [2] it was 4 µg/mL (≈ 7.32 µM); in experiment [3], 4 µg/mL (≈ 7.32 µM); in experiment [4] it was 2 µg/mL (≈ 3.66 µM).
Regarding `CN1CC[C@H](Oc2cncc(-c3cc(CNCC[C@H]4CN(c5ccc6c(n5)NC(=O)CO6)C(=O)O4)ccn3)n2)C1` [Example $147, 6-{(S)-5-[2-({2-[6-((S)-1-methyl-pyrrolidin-3-yloxy)-pyrazin-2-yl]-pyridin-4-ylmethyl}-amino)-ethyl]-2-oxo-oxazolidin-3-yl}-4H-pyrido[3,2-b][1,4]oxazin-3-one], the MIC in experiment [1] is 4 µg/mL (≈ 7.32 µM); in experiment [2], 1 µg/mL (≈ 1.83 µM); in experiment [3], 1 µg/mL (≈ 1.83 µM); in experiment [4], 1 µg/mL (≈ 1.83 µM).
In the case of `CN1CC[C@H](Oc2cncc(-c3ccnc(CNCC[C@H]4CN(c5ccc6c(n5)NC(=O)CO6)C(=O)O4)c3)n2)C1` [Example $148, 6-{(S)-5-[2-({4-[6-((S)-1-methyl-pyrrolidin-3-yloxy)-pyrazin-2-yl]-pyridin-2-ylmethyl}-amino)-ethyl]-2-oxo-oxazolidin-3-yl}-4H-pyrido[3,2-b][1,4]oxazin-3-one], the minimum inhibitory concentration (MIC) in experiment [1], in experiment [2], in experiment [3] and in experiment [4] was 1 µg/mL (≈ 1.83 µM) in each case.
As for `CN1CC(Oc2cccc(-c3cccc(CNCC[C@@H]4CN(c5ccc6c(c5)NC(=O)CS6)C(=O)O4)c3)n2)C1` [Example $149, 6-[(R)-5-(2-{3-[6-(1-methyl-azetidin-3-yloxy)-pyridin-2-yl]-benzylamino}-ethyl)-2-oxo-oxazolidin-3-yl]-4H-benzo[1,4]thiazin-3-one], the MIC in experiment [1] worked out at 1 µg/mL (≈ 1.83 µM); in experiment [2] it was 0.5 µg/mL (≈ 0.916 µM); in experiment [3], 1 µg/mL (≈ 1.83 µM); in experiment [4], 0.5 µg/mL (≈ 0.916 µM).
Turning to `CN1CC[C@H](Oc2cccc(-c3cccc(CNCC[C@@H]4CN(c5ccc6c(c5)NC(=O)CS6)C(=O)O4)c3)n2)C1` [Example $150, 6-[(R)-5-(2-{3-[6-((S)-1-methyl-pyrrolidin-3-yloxy)-pyridin-2-yl]-benzylamino}-ethyl)-2-oxo-oxazolidin-3-yl]-4H-benzo[1,4]thiazin-3-one], the MIC in experiment [1], in experiment [2], in experiment [3] and in experiment [4] was 2 µg/mL (≈ 3.57 µM) throughout.
In the case of `O=C1COc2ccc(N3C[C@@H](CCNCc4cccc(-c5cccc(OC[C@@H]6CCN6)n5)c4)OC3=O)nc2N1` [Example $151, 6-[(R)-5-(2-{3-[6-((S)-1-azetidin-2-ylmethoxy)-pyridin-2-yl]-benzylamino}-ethyl)-2-oxo-oxazolidin-3-yl]-4H-pyrido[3,2-b][1,4]oxazin-3-one], the minimum inhibitory concentration (MIC) was determined as 1 µg/mL (≈ 1.88 µM) in experiment [1], 4 µg/mL (≈ 7.54 µM) in experiment [2], 2 µg/mL (≈ 3.77 µM) in experiment [3] and 2 µg/mL (≈ 3.77 µM) in experiment [4].
Take `O=C1CSc2ccc(N3C[C@@H](CCNCc4cccc(-c5cccc(OC[C@@H]6CCN6)n5)c4)OC3=O)cc2N1` [Example $152, 6-[(R)-5-(2-{3-[6-((S)-1-azetidin-2-ylmethoxy)-pyridin-2-yl]-benzylamino}-ethyl)-2-oxo-oxazolidin-3-yl]-4H-benzo[1,4]thiazin-3-one]: the MIC is 1 µg/mL (≈ 1.83 µM) in experiment [1], 4 µg/mL (≈ 7.33 µM) in experiment [2], 4 µg/mL (≈ 7.33 µM) in experiment [3] and 2 µg/mL (≈ 3.67 µM) in experiment [4].
Take `CN1CC[C@H](Oc2cnnc(-c3cccc(CNCC[C@H]4CN(c5ccc6c(n5)NC(=O)CO6)C(=O)O4)c3)c2)C1` [Example $153, 6-[(S)-5-(2-{3-[5-((S)-1-methyl-pyrrolidin-3-yloxy)-pyridazin-3-yl]-benzylamino}-ethyl)-2-oxo-oxazolidin-3-yl]-4H-pyrido[3,2-b][1,4]oxazin-3-one]: the minimal inhibitory concentration (MIC) in experiment [1] amounted to 4 µg/mL (≈ 7.33 µM); in experiment [2], 4 µg/mL (≈ 7.33 µM); in experiment [3] it was 4 µg/mL (≈ 7.33 µM); in experiment [4], 2 µg/mL (≈ 3.67 µM).
In the case of `NCCOc1ccnc(-c2cccc(CNCC[C@H]3CN(c4ccc5c(n4)NC(=O)CO5)C(=O)O3)c2)c1` [Example $154, 6-[(S)-5-(2-{3-[4-(2-amino-ethoxy)-pyridin-2-yl]-benzylamino}-ethyl)-2-oxo-oxazolidin-3-yl]-4H-pyrido[3,2-b][1,4]oxazin-3-one], the MIC is 0.5 µg/mL (≈ 0.991 µM) in experiment [1], 4 µg/mL (≈ 7.93 µM) in experiment [2], 4 µg/mL (≈ 7.93 µM) in experiment [3] and 1 µg/mL (≈ 1.98 µM) in experiment [4].
For the molecule `NCCN(CCN)CCOc1cccc(-c2cccc(CNCC[C@H]3CN(c4ccc5c(n4)NC(=O)CO5)C(=O)O3)c2)c1` [Example $155, 6-((S)-5-{2-[(3′-{2-[bis-(2-amino-ethyl)-amino]-ethoxy}-biphenyl-3-ylmethyl)-amino]-ethyl}-2-oxo-oxazolidin-3-yl)-4H-pyrido[3,2-b][1,4]oxazin-3-one], the MIC in experiment [1] is 2 µg/mL (≈ 3.39 µM); in experiment [2], 1 µg/mL (≈ 1.7 µM); in experiment [3], 16 µg/mL (≈ 27.1 µM); in experiment [4] it was 2 µg/mL (≈ 3.39 µM).

Broadly, the MIC is the lowest concentration found to suppress growth. High values mean weaker potency, low ones greater potency.

The values above are taken from patent US9850256B2, “Antibacterial basic biaromatic derivatives with aminoalkoxy substitution” (priority 2014, dated 2017).
